Results taken from ChEMBL document CHEMBL1201862, “PubChem BioAssay data set” (2004).
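How tested: cells in 96-well plates exposed to compound for 48 hours at five concentrations. GI50 = concentration required for 50% inhibition of growth.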 Activity calls are given as the source filed them. No stated cut-off is given here; in the data, active = GI50 up to about 1.1 µM and inactive = higher.

Experiments:
Assay in all cases: NCI anticancer screen, dose series, 48 h
UACC-257 = system: UACC-257
ACHN = system: ACHN
IGROV-1 = system: IGROV-1
NCI-H522 = system: NCI-H522
DMS-273 = system: DMS-273
SNB-78 = system: SNB-78
KM-20L2 = system: KM-20L2
786-0 = system: 786-0
SF-295 = system: SF-295
COLO 205 = system: COLO 205
RXF 393 = system: RXF 393
SF-268 = system: SF-268
SK-MEL-2 = system: SK-MEL-2
SR = system: SR
HOP-92 = system: HOP-92
A549 = system: A549
A498 = system: A498
NCI/ADR-RES = system: NCI/ADR-RES
MDA-N = system: MDA-N
BT-549 = system: BT-549

SMILES	GI50 (UACC-257)	GI50 (ACHN)	GI50 (IGROV-1)	GI50 (NCI-H522)	GI50 (DMS-273)	GI50 (SNB-78)	GI50 (KM-20L2)	GI50 (786-0)	GI50 (SF-295)	GI50 (COLO 205)	GI50 (RXF 393)	GI50 (SF-268)	GI50 (SK-MEL-2)	GI50 (SR)	GI50 (HOP-92)	GI50 (A549)	GI50 (A498)	GI50 (NCI/ADR-RES)	GI50 (MDA-N)	GI50 (BT-549)
COc1cc(OC)c2c(O)cc(CC(C)O)cc2c1 (stereo not given)	> 100 µM (inactive)	> 100 µM (inactive)	> 100 µM (inactive)	> 100 µM (inactive)	> 100 µM (inactive)	> 100 µM (inactive)	> 100 µM (inactive)	> 100 µM (inactive)	> 100 µM (inactive)	> 100 µM (inactive)	> 100 µM (inactive)	> 100 µM (inactive)	> 100 µM (inactive)	> 100 µM (inactive)	> 100 µM (inactive)	> 100 µM (inactive)	> 100 µM (inactive)	–	–	–
CCC1=CC2CN3CCc4c([nH]c5ccccc45)C(C(=O)OC)(C2)C13 (stereo not given)	54.8 µM (inactive)	–	47.3 µM (inactive)	45.7 µM (inactive)	48.6 µM (inactive)	64.7 µM (inactive)	1.22 µM (inactive)	–	45.2 µM (inactive)	39.4 µM (inactive)	35.7 µM (inactive)	54.5 µM (inactive)	67.8 µM (inactive)	–	12.4 µM (inactive)	47.6 µM (inactive)	48.1 µM (inactive)	45.5 µM (inactive)	–	–
COc1cccc2c1C(=O)c1c(O)c3c(c(O)c1C2=O)C[C@](O)(C(=O)CO)CC3OC1CC(N)C(OC2CCCCO2)C(C)O1 (stereo not given in full)	0.995 µM (active)	–	0.424 µM (active)	0.356 µM (active)	0.019 µM (active)	1.24 µM (inactive)	0.624 µM (active)	–	0.0483 µM (active)	0.329 µM (active)	0.43 µM (active)	0.293 µM (active)	1.05 µM (active)	–	0.239 µM (active)	< 0.01 µM (active)	< 0.0411 µM (active)	–	–	–
NC1=NC(c2ccccc2)CC(c2cc(Cl)cc(Br)c2O)=N1 (stereo not given)	14.7 µM (inactive)	16.9 µM (inactive)	14.5 µM (inactive)	3.79 µM (inactive)	7.55 µM (inactive)	17.2 µM (inactive)	15.7 µM (inactive)	16.9 µM (inactive)	10.9 µM (inactive)	13 µM (inactive)	4.36 µM (inactive)	11.7 µM (inactive)	4.59 µM (inactive)	6.43 µM (inactive)	18 µM (inactive)	14.6 µM (inactive)	16.4 µM (inactive)	9.35 µM (inactive)	–	–
Cn1cc2ccccc2c1-c1nc(F)nc(Nc2ccc(N)cc2)n1	17.3 µM (inactive)	23.3 µM (inactive)	12.7 µM (inactive)	14.4 µM (inactive)	10.2 µM (inactive)	15.2 µM (inactive)	18 µM (inactive)	22.3 µM (inactive)	16.2 µM (inactive)	> 10 µM (inactive)	15.3 µM (inactive)	20 µM (inactive)	13.3 µM (inactive)	16.8 µM (inactive)	15.1 µM (inactive)	18.1 µM (inactive)	6.93 µM (inactive)	–	–	–
Nc1ncnc2c(C3OC(CO)C(O)C3O)n[nH]c12 (stereo not given)	–	–	0.445 µM (active)	0.151 µM (active)	0.0826 µM (active)	0.53 µM (active)	0.229 µM (active)	–	0.427 µM (active)	2.42 µM (inactive)	0.201 µM (active)	–	0.0863 µM (active)	–	0.0513 µM (active)	0.428 µM (active)	0.484 µM (active)	0.076 µM (active)	–	–
C[C@]12CCc3nonc3C1CC[C@@H]1C2CC[C@]2(C)C(=O)CCC12 (stereo not given in full)	> 10 µM (inactive)	74 µM (inactive)	67.1 µM (inactive)	19.8 µM (inactive)	20.7 µM (inactive)	59.6 µM (inactive)	26.5 µM (inactive)	> 100 µM (inactive)	26.3 µM (inactive)	24.3 µM (inactive)	35.2 µM (inactive)	39.4 µM (inactive)	24.5 µM (inactive)	–	20 µM (inactive)	25.8 µM (inactive)	22.9 µM (inactive)	–	–	–
COc1ccc(/C=C\c2cc(OC)c(OC)c(OC)c2)c(O)c1O [COMBRETASTATIN A-1]	0.0582 µM (active)	0.203 µM (active)	1.57 µM (inactive)	0.0942 µM (active)	0.05 µM (active)	0.0953 µM (active)	8.93 µM (inactive)	0.69 µM (active)	0.05 µM (active)	6.65 µM (inactive)	–	0.0665 µM (active)	0.0451 µM (active)	2.07 µM (inactive)	0.112 µM (active)	0.178 µM (active)	–	–	< 0.01 µM (active)	< 0.0223 µM (active)
C(=N/NC1=NCCN1)/c1c2ccccc2c(/C=N\NC2=NCCN2)c2ccccc12	0.344 µM (active)	0.221 µM (active)	0.211 µM (active)	0.0698 µM (active)	0.0759 µM (active)	0.171 µM (active)	0.265 µM (active)	0.0991 µM (active)	0.383 µM (active)	0.054 µM (active)	0.155 µM (active)	0.0738 µM (active)	0.147 µM (active)	0.00879 µM (active)	0.0731 µM (active)	0.0369 µM (active)	0.324 µM (active)	88.3 µM (inactive)	0.113 µM (active)	–
COc1ccc(Sc2ccccc2[N+](=O)[O-])cc1	36.9 µM (inactive)	–	69.8 µM (inactive)	–	4.98 µM (inactive)	26.4 µM (inactive)	> 10 µM (inactive)	–	> 10 µM (inactive)	5.69 µM (inactive)	10.2 µM (inactive)	72.8 µM (inactive)	32.1 µM (inactive)	17.1 µM (inactive)	18.7 µM (inactive)	15.2 µM (inactive)	50.7 µM (inactive)	–	–	–
COc1cccc2c1C(=O)c1c(O)c3c(c(O)c1C2=O)C[C@@](O)(C(=O)CO)CC3OC1CC(NCCCC(OC(C)=O)OC(C)=O)C(O)C(C)O1 (stereo not given in full)	0.00269 µM (active)	0.00243 µM (active)	0.006 µM (active)	0.00129 µM (active)	< 0.0001 µM (active)	0.00224 µM (active)	0.000912 µM (active)	0.00219 µM (active)	0.00147 µM (active)	–	0.00172 µM (active)	0.00305 µM (active)	0.00192 µM (active)	< 0.0001 µM (active)	0.00277 µM (active)	0.00333 µM (active)	0.0019 µM (active)	–	–	–
N=C(NC(=N)Nc1ccc(S(=O)(=O)Nc2cnc3ccccc3n2)cc1)Nc1ccc(Br)cc1	> 100 µM (inactive)	> 100 µM (inactive)	> 100 µM (inactive)	> 100 µM (inactive)	> 100 µM (inactive)	> 100 µM (inactive)	> 100 µM (inactive)	> 100 µM (inactive)	> 100 µM (inactive)	> 100 µM (inactive)	–	> 100 µM (inactive)	> 100 µM (inactive)	> 100 µM (inactive)	> 100 µM (inactive)	> 100 µM (inactive)	> 100 µM (inactive)	–	–	–
CN1Cc2ccccc2C2(COc3ccccc3C2=O)C1 (stereo not given)	62.7 µM (inactive)	> 100 µM (inactive)	28.7 µM (inactive)	98.2 µM (inactive)	> 100 µM (inactive)	> 100 µM (inactive)	> 100 µM (inactive)	–	> 100 µM (inactive)	–	> 100 µM (inactive)	> 100 µM (inactive)	> 100 µM (inactive)	31.8 µM (inactive)	20 µM (inactive)	> 100 µM (inactive)	–	–	–	–
NC(CCCNc1ccc(O)cc1)C(=O)O (stereo not given)	27.8 µM (inactive)	26 µM (inactive)	26.4 µM (inactive)	61.4 µM (inactive)	> 100 µM (inactive)	> 83.6 µM (inactive)	> 100 µM (inactive)	17.2 µM (inactive)	> 100 µM (inactive)	> 54.2 µM (inactive)	26.1 µM (inactive)	42.8 µM (inactive)	31 µM (inactive)	25.3 µM (inactive)	26.5 µM (inactive)	> 94.2 µM (inactive)	41.3 µM (inactive)	–	–	–
O=C(CCC(=O)Nc1ccc(Cl)c(Cl)c1)CC(=O)c1ccc2ccccc2c1	> 100 µM (inactive)	39.8 µM (inactive)	> 100 µM (inactive)	89.5 µM (inactive)	62.4 µM (inactive)	> 100 µM (inactive)	25.9 µM (inactive)	> 100 µM (inactive)	> 100 µM (inactive)	–	> 100 µM (inactive)	> 100 µM (inactive)	41.8 µM (inactive)	–	> 100 µM (inactive)	> 100 µM (inactive)	> 100 µM (inactive)	–	–	–
O=Cc1cc2c(cc1-c1cc3c(cc1C=O)OCO3)OCO2	> 100 µM (inactive)	71.8 µM (inactive)	> 100 µM (inactive)	64.1 µM (inactive)	64.3 µM (inactive)	> 100 µM (inactive)	> 100 µM (inactive)	> 100 µM (inactive)	> 100 µM (inactive)	39.5 µM (inactive)	37.3 µM (inactive)	> 100 µM (inactive)	> 100 µM (inactive)	21 µM (inactive)	> 100 µM (inactive)	50.4 µM (inactive)	> 100 µM (inactive)	–	–	–
O=C(CC(=O)N1N=C(c2ccccc2)C(/N=N/c2ccccc2Cl)C1=O)Nc1ccccc1Cl (stereo not given)	48.4 µM (inactive)	20.2 µM (inactive)	63.1 µM (inactive)	28.9 µM (inactive)	37.5 µM (inactive)	40.9 µM (inactive)	46.3 µM (inactive)	20.8 µM (inactive)	27.4 µM (inactive)	31.6 µM (inactive)	–	31.5 µM (inactive)	43.5 µM (inactive)	19.3 µM (inactive)	–	21.4 µM (inactive)	> 10 µM (inactive)	–	–	–
